Experimental data taken from patent US20250144107A1, “USE OF A PIKFYVE INHIBITOR IN COMBINATION WITH IMMUNOTHERAPY” (The Regents of the University of Michigan, priority 2023, published 2025).

What was measured:
KPC1361 cells = assay: Immunocytochemistry of MHC-I localization and vacuoles; format: cell-based, mouse; conditions: IFN-γ stimulated KPC1361 cells, vs DMSO
Procedure: FIG. 1D is a series of 6 images showing MHC-I localization in IFN-γ stimulated KPC1361 cells treated with DMSO, Apilimod, or ESK981.
Cancer cells were seeded on cover glasses coated with 0.01% poly-L-Lysine (Sigma-Aldrich; catalog #: A-005-C). The cells were then treated with DMSO, apilimod, or ESK981, and stimulated with 10 ng/ml mouse recombinant IFN-γ (R&D Systems; catalog #: 485-MI) for 24 hours, followed by fixation with 2% paraformaldehyde in PBS and one washing with PBS. The cells were then permeabilized with 0.25% Triton X-100 in PBS, washed with PBS three times, and blocked with 5% goat serum in PBS for one hour at room temperature. After blocking, the cells were incubated with the MHC-I antibody (ER-HR52; Novus Biologicals; catalog #: NB100-64952) at 4° C. overnight, followed by PBS wash for three times and incubation of secondary antibody, Alexa Fluor 488 goat anti-rat IgG antibody (Jackson Immunoresearch; #112-545-167) at room temperature for one hour. After further washing with PBS three times, the cells were stained with DAPI and mounted on slides for imaging.

B16-BL6 melanoma model = assay: B16-BL6 lung metastasis model after removal of primary tumors; format: in vivo, mice; conditions: for efficacy of ICB to inhibit metastasis: combination with ICB (anti-PD-1 plus anti-CTLA-4); for lung metastasis: treatment alone
Procedure: FIG. 8A (Left) is a box plot of tumor volume of the efficacy of immune checkpoint inhibitors in combination with apilimod or ESK981 treatment against metastasis in a subcutaneous B16BL6 tumor; (Middle) is a series of 12 images of the efficacy of immune checkpoint inhibitors in combination with apilimod or ESK981 treatment against metastasis in a subcutaneous B16BL6 tumor; (Right) is a box plot of the counts of lung tumor metastasis treated with immune checkpoint inhibitors in combination with apilimod or ESK981.
(§1) All experimental protocols were conducted after approval by the U-M Institutional Animal Care & Use Committee. […] KPC1361 cells were resuspended in PBS, 1:1 (v/v) mixed with Matrigel (BD Biosciences; catalog #: 354248), and orthotopically injected to the pancreases at 250,000 cells in a total volume of 50 μl per injection. B16-F10 cells were resuspended in PBS and injected subcutaneously to both flanks at 400,000 cells per injection. For ACT study, B16-F10-OVA cells were resuspended in PBS and injected subcutaneously to both flanks at 300,000 cells per injection. For lung metastasis experiment, B16-BL6 cells were resuspended in PBS, 1:1 (v/v) mixed with Matrigel and injected subcutaneously to both flanks at 400,000 cells per injection. Fifteen days after tumor cell inoculation, the primary tumors were removed surgically under anesthesia. Thirty-five days after removal of the primary tumors, lung tissues were extracted and fixed, and lung metastasis was quantified. C57BL/6 mice were acquired from The Jackson Laboratory. Measurement of tumor volume began 5-9 days post tumor cell implantation and was performed 2-3 times per week using calipers. Volume measurements of pancreatic tumors were also achieved with calipers, as reported See, e.g., Koikawa, K. et al., Cell 2021; 184(18):4753-4771. In brief, mice were subjected to anesthesia with 2-3% isoflurane, and the abdominal wall then became soft and loose. The mouse was next held with the left hand allowing for the palpation and assessment of the firm pancreatic tumor mass with the right hand. […] Volume (mm^3) of tumor was calculated using (W^2×L)/2, where W stood for minor tumor axis and L for the major. All mice were maintained in a pathogen-free condition, with a 12-hour light/dark cycle.
(§2) For ICB treatment in KPC1361 pancreatic tumor-bearing mice, randomization was performed when tumors reached approximately 100 mm^3. For ACT and vaccine experiments, the mice were randomized when tumors reached approximately 35 mm^3. Anti-mouse PD-1 (clone RMP1-14) and its isotype control were purchased from BioXcell, administered intraperitoneally at 250 μg per mouse, biweekly. […]

[1] = Body weight of treated tumor-bearing mice; format: in vivo; conditions: preclinical models; single agents and in combination with immunotherapies
Excerpt: FIG. 9B is a line graph of the body weight of pancreatic tumor bearing mice, orthotopically injected with KPC1361 cells and treated with an immune checkpoint inhibitor, apilimod, or ESK981 individually, or in combination with each other.
FIG. 11A is a line graph of mice body weight treated with adoptive cell therapy (ACT) in combination with apilimod or ESK981.
FIG. 11B is a line graph of mice body weight treated with personalized vaccines in combination with apilimod or ESK981

[2] = system: subcutaneous tumors derived from OVA-expressing B16-F10 cells; assay: Adoptive cell therapy in subcutaneous B16-F10-OVA tumor model; format: in vivo, mice; conditions: combination with ACT
Excerpt: FIG. 10A is an experimental timeline of the efficacy against subcutaneous ovalbumin-expressing B16-F10 (B16-F10-OVA) tumors treated with adoptive cell therapy (ACT) in combination with apilimod or ESK981.
FIG. 10B is a series of 6 line graphs showing the growth of subcutaneous ovalbumin-expressing B16-F10 (B16-F10-OVA) tumors treated with adoptive cell therapy (ACT) in combination with apilimod or ESK981.
FIG. 10C is a line graph of the survival of mice with subcutaneous ovalbumin-expressing B16-F10 (B16-F10-OVA) tumors treated with adoptive cell therapy (ACT) in combination with apilimod or ESK981.
as §1, §2

| SMILES | cell surface expression of MHC-I (KPC1361 cells) | efficacy of ICB to inhibit metastasis (B16-BL6 melanoma model) | lung metastasis (B16-BL6 melanoma model) | safety profile [1] | efficacy of the ACT [2] | survival of the animals [2] |
| --- | --- | --- | --- | --- | --- | --- |
| Cc1cccc(/C=N/Nc2cc(N3CCOCC3)nc(OCCc3ccccn3)n2)c1 [apilimod, N-[(E)-(3-methylphenyl)methylideneamino]-6-morpholin-4-yl-2-(2-pyridin-2-ylethoxy)pyrimidin-4-amine] | increased | strongly enhanced | reduction of lung metastasis | favorable safety profiles | strikingly enhanced | significantly extending survival |
| CC(C)Cn1c2ccc(Nc3ncccn3)cc2c2c3c(c4c(c21)CCc1nn(C)cc1-4)C(=O)NC3 [ESK981, 13-isobutyl-4-methyl-10-(pyrimidin-2-ylamino)-1,2,4,7,8,13-hexahydro-6H-indazolo[5,4-a]pyrrolo[3,4-c]carbazol-6-one] | increased | strongly enhanced | reduction of lung metastasis | favorable safety profiles | strikingly enhanced | significantly extending survival |
